Results taken from patent US20240390298A1, “CYCLOHEXYL BETA-HYDROXY ALKYL AMINES AND MEDICAL USES THEREOF” (ATROGI AB, priority 2021, published 2024).
Counter-ions that a name gives are not always drawn.

Legend:
Assay type in all cases: cell-based
[1] = system: L6-myotubes; assay: Glucose uptake in L6-myotubes in the presence of the β2-antagonist ICI-118,551; details: differentiated L6-myotubes; compound 1×10^−5 M; ICI-118,551 1×10^−5 M
Experimental: L6-myoblasts were grown in Dulbecco's Modified Eagle's Medium (DMEM) containing 1 g/L glucose supplemented with 10% fetal bovine serum, 2 mM L-Glutamine, 50 U/mL penicillin, 50 μg/mL streptomycin and 10 mM HEPES. Cells were plated at 1×10^5 cells per mL in 24-well plates. After reaching 90% confluence the cells were grown in medium containing 2% FBS for 7 days where upon cells differentiated into myotubes.
Differentiated L6-myotubes were serum-starved overnight in medium containing 0.5% fatty-acid free BSA and were incubated with the β2-adrenergic receptor antagonist ICI-118,551 at a final concentration of 1×10^−5 M for 30 min. The cells were stimulated with a compound of the invention, at a final concentration of 1×10^−5 M. After 1 h 40 min the cells were washed twice with warm, glucose free medium or PBS and additional portions of the compound of the invention and the antagonist were added. After 20 min the cells were exposed to 50 nM ^3H-2-deoxyglucose for 10 min before washed with ice cold glucose free medium or PBS three times and lysed with 0.2 M NaOH, 400 μL/well, for 1 h at 60° C. The cell lysate was mixed with 4 mL scintillation buffer (Emulsifier Safe, Perkin Elmer) and the radioactivity was detected in a β-counter (Tri-Carb 4810TR, Perkin Elmer). The activity for each compound is compared to that of isoproterenol.

[2] = system: L6-myotubes; assay: Glucose uptake in differentiated L6-myotubes (3H-2-deoxyglucose), compared to isoproterenol; details: agonist 1×10^−5 M, 50 nM 3H-2-deoxyglucose; for Emax at 10 µM: read-out: Biological example 1: glucose uptake, activity compared to that of isoproterenol
Summary of the method: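 Serum-starved differentiated L6 myotubes stimulated with agonist at 1×10^−5 M for 1 h 40 min, re-dosed in glucose-free medium for 20 min, then given 50 nM ^3H-2-deoxyglucose for 10 min. Uptake read by β-counting of NaOH lysates; activity expressed relative to isoproterenol.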

[3] = system: L6-myotubes; assay: Measurement of intracellular cAMP levels in differentiated L6 cells (alpha screen cAMP kit), compared to isoproterenol; details: Rattus norvegicus, L6, 0.25 h, agonist 1×10^−5 M, 15 min, read-out: Biological example 2: intracellular cAMP levels, activity compared to that of isoproterenol
Summary of the method: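 L6 myoblasts were differentiated into myotubes over 7 days in 2% FBS, then serum-starved overnight. Agonist at 1×10^−5 M final was applied for 15 min in HBSS with 1% BSA, 5 mM HEPES and 1 mM IBMX, pH 7.4. After ethanol extraction and lysis, cAMP was quantified by AlphaScreen, with activity expressed relative to isoproterenol.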

Row | Structure (SMILES) | Biological example 3: glucose uptake in the presence of the β2-antagonist ICI-118,551, activity compared to that of isoproterenol [1] | Biological example 1: glucose uptake, activity compared to that of isoproterenol [2] | Emax at 10 µM [3] | Emax at 10 µM [2]
1 | COC(=O)[C@H]1CC[C@H](CC(C)(C)NC[C@H](O)c2cccc(F)c2)CC1 [Example 107, Methyl (1R,4r)-4-(2-(((R)-2-(3-Fluorophenyl)-2-hydroxyethyl)amino)-2-methylpropyl)cyclohexane-1-carboxylate] | − (less than 25%) | + + + | < 25% | –
2 | CC(C)(C[C@H]1CC[C@H](N)CC1)NC[C@H](O)c1cncc(F)c1 [Example 85, (R)-2-((1-((1r,4R)-4-Aminocyclohexyl)-2-methylpropan-2-yl)amino)-1-(5-fluoropyridin-3-yl)ethan-1-ol] | − (less than 25%) | + + + | < 25% | –
3 | COC(=O)[C@H]1CC[C@@H](CCC(C)(C)NC[C@H](O)c2cncc(F)c2)CC1 [Example 112, Methyl (1S,4s)-4-(3-(((R)-2-(5-fluoropyridin-3-yl)-2-hydroxyethyl)amino)-3-methylbutyl)cyclohexane-1-carboxylate] | − (less than 25%) | + + + | 25 to 50% | –
4 | COC(=O)[C@H]1CC[C@H](CCC(C)(C)NC[C@H](O)c2cncc(F)c2)CC1 [Example 116, Methyl (1R,4r)-4-(3-(((R)-2-(5-fluoropyridin-3-yl)-2-hydroxyethyl)amino)-3-methylbutyl)cyclohexane-1-carboxylate] | − (less than 25%) | + + + | < 25% | –
5 | CO[C@H]1CC[C@@H](CCNC[C@H](O)c2cccc(F)c2)CC1 [Example 9, (R)-1-(3-Fluorophenyl)-2-((2-((1s,4S)-4-methoxycyclohexyl)ethyl)amino)-ethan-1-ol] | – | + + | < 25% | –
6 | CN([C@H]1CC[C@H](CC(C)(C)NC[C@H](O)c2cccc(F)c2)CC1)S(C)(=O)=O.Cl [Example 179, N-((1R,4r)-4-(2-(((R)-2-(3-Fluorophenyl)-2-hydroxyethyl)amino)-2-methylpropyl)cyclohexyl)-N-methylmethanesulfonamide hydrochloride] | – | + + | < 25% | –
7 | CC(=O)N[C@H]1CC[C@@H](CNC[C@H](O)c2cccc(F)c2)CC1 [Example 73, N-((1S,4s)-4-((((R)-2-(3-Fluorophenyl)-2-hydroxyethyl)amino)-methyl)cyclohexyl)acetamide] | – | + + | < 25% | –
8 | COC1CCC(CCCNC[C@H](O)c2cccc(F)c2)CC1 (stereo partly drawn) [Example 17, (R)-1-(3-Fluorophenyl)-2-((3-((1r,4S)-4-methoxycyclohexyl)propyl)-amino)ethan-1-ol] | – | – | < 25% | 25 to 50%
9 | O[C@@H](CNCCC[C@H]1CC[C@H](O)CC1)c1cncc(F)c1 [Example 58, (1S,4r)-4-(3-(((R)-2-(5-Fluoropyridin-3-yl)-2-hydroxyethyl)amino)-propyl)cyclohexan-1-ol] | – | – | < 25% | 25 to 50%
10 | CC(=O)N(C)[C@H]1CC[C@@H](CC(C)(C)NC[C@H](O)c2cncc(F)c2)CC1.Cl [Example 184, N-((1S,4s)-4-(2-(((R)-2-(5-Fluoropyridin-3-yl)-2-hydroxyethyl)amino)-2-methylpropyl)cyclohexyl)-N-methylacetamide] | – | + + + | < 25% | –
11 | CC(C)(C[C@H]1CC[C@H](NS(C)(=O)=O)CC1)NC[C@H](O)c1cccc(C(F)(F)F)n1 [Example 152, N-((1S,4r)-4-(2-(((S)-2-Hydroxy-2-(6-(trifluoromethyl)pyridin-2-yl)-ethyl)amino)-2-methylpropyl)cyclohexyl)methanesulfonamide dihydrochloride] | – | + + | < 25% | –
12 | CS(=O)(=O)N[C@H]1CC[C@H](CNC[C@H](O)c2cccc(F)c2)CC1 [Example 71, N-((1R,4r)-4-((((R)-2-(3-Fluorophenyl)-2-hydroxyethyl)amino)methyl)-cyclohexyl)methanesulfonamide] | – | + + | < 25% | –
13 | CO[C@H]1CC[C@@H](CCC(C)(C)NC[C@H](O)c2cncc(F)c2)CC1 [Example 24, (R)-1-(5-Fluoropyridin-3-yl)-2-((4-((1s,4R)-4-methoxycyclohexyl)-2-methylbutan-2-yl)amino)ethan-1-ol dihydrochloride] | – | + + + | < 25% | –
14 | CC(=O)N[C@H]1CC[C@@H](CC(C)(C)NC[C@H](O)c2cccc(C#N)n2)CC1 [Example 141, N-((1R,4s)-4-(2-(((S)-2-(6-Cyanopyridin-2-yl)-2-hydroxyethyl)amino)-2-methylpropyl)cyclohexyl)acetamide] | – | + + + | < 25% | –
15 | CC(C)(C[C@H]1CC[C@@H](O)CC1)NC[C@H](O)c1cncc(F)c1.Cl [Example 50, (1S,4s)-4-(2-(((R)-2-(5-Fluoropyridin-3-yl)-2-hydroxyethyl)amino)-2-methylpropyl)cyclohexan-1-ol hydrochloride] | – | + + + | < 25% | –
16 | CC(C)(CC[C@H]1CC[C@H](N)CC1)NC[C@H](O)c1cncc(F)c1 [Example 92, (R)-2-((4-((1r,4S)-4-Aminocyclohexyl)-2-methylbutan-2-yl)amino)-1-(5-fluoropyridin-3-yl)ethan-1-ol] | – | – | < 25% | 25 to 50%
17 | Cc1ncccc1[C@@H](O)CNC(C)(C)C[C@H]1CC[C@@H](NS(C)(=O)=O)CC1 [Example 144, N-((1S,4s)-4-(2-(((R)-2-Hydroxy-2-(2-methylpyridin-3-yl)ethyl)amino)-2-methylpropyl)cyclohexyl)methanesulfonamide dihydrochloride] | – | + + | < 25% | –
18 | CC(C)(NC[C@H](O)c1cccc(F)c1)[C@H]1CC[C@@H](OCc2ccccc2)CC1 [Example 33, (R)-2-((2-((1s,4S)-4-(Benzyloxy)cyclohexyl)propan-2-yl)amino)-1-(3-fluorophenyl)ethan-1-ol] | – | + + | < 25% | –
19 | CO[C@H]1CC[C@H](CCNC[C@H](O)c2cccc(F)c2)CC1 [Example 11, (R)-1-(3-Fluorophenyl)-2-((2-((1r,4R)-4-methoxycyclohexyl)ethyl)amino)-ethan-1-ol] | – | – | < 25% | 25 to 50%
